This note sets out measurements from patent publication US9669015B2, “Piperidine-2, 6-dione derivatives and their use as tumor necrosis factor inhibitors” (Tianjin Hemay Bio-Tech Co., Ltd., priority 2005, dated 2017).

For orientation: inhibition means how much of the control response was suppressed. The term EC50 denotes the concentration giving half of the maximal effect.

One data set in a line: Solubility in water. It counts as physicochemical.
The next data set has as its system TNFα released by PBMCs. Nature of the data set: Inhibition of TNFα released by PBMCs after LPS stimulation in vitro (ELISA). It counts as cell-based, human. Conditions: for Inhibition Degree (%): TNFα inhibition rate, LPS 0.1 μg/ml-stimulated PBMCs, compound concentration 3.0 μM; for EC50: concentration giving 50% TNFα inhibition, LPS-stimulated PBMCs, nonlinear regression. From the text: Pharmacological Research: Effects of Monocyte (PBMC) Stimulation by LPS on TNFα
Cytokine TNFα released by PBMCs in peripheral blood after lip polysaccharide (LPS) stimulation in vitro was studied. The followings are research methods of cytokine TNFα released by PBMCs, which are inhibited by compounds of the invention.
PBMCs were obtained from blood of at least three volunteers after heparin treatment, by the method of gradient extraction. PBMCs were collected and washed with 1640 culture medium three times (10% calf serum, 2 mM L-glutamine, […] mercaptoethanol, 50 μg/ml streptomycin, 50 U/ml penicillin). The above PBMCs were placed onto a 24-well cell culture plate. The concentration was adjusted to 1×10^6 cells/ml with 1640 culture medium. Test compounds were dissolved in dimethylsulfoxide at an appropriate concentration. The resultant solution was added to the above cell culture medium and the culture plate was placed in a CO2 incubator (5% CO2, 90% humidity) for 1 hour. Then, LPS (Sigma) was added to adjust the concentration to 0.1 μg/ml (except for contrast). After 20 hrs of incubation, the content of TNFα in supernatant of the above PBMC culture medium was determined by ELISA kit (America Genzyme Co) using standard method. The measured value of the control (no active compound), and the measured value of the tested compounds was used to calculate the TNFα inhibition rate. The concentration of compounds giving a 50% TNFα inhibition (IC50 value) was calculated by nonlinear regression analysis. Each concentration was determined twice and an average value was obtained.

Setting [1] is: Homo sapiens, PBMC, read-out: Inhibition Degree (%).

On to “2-(1-(2-hydroxyethyl)-2,6-dioxopiperidin-3-yl)isoindolin-1,3-dione 2-(1-piperidyl)acetate hydrochloride [Example 14]”, for which, in “Solubility in water”, the Solubility in water entry is “more than 100 mg/mL”.
Same read-out and setting: under “2-(1-(2-hydroxyethyl)-2,6-dioxopiperidin-3-yl)isoindolin-1,3-dione 2-(diethylamino)acetate hydrochloride [Example 10]” stands “higher than 100 mg/mL”.
Take “4,5,6,7-tetrafluoro-2-(1-(2-methoxyethyl)-2,6-dioxopiperidin-3-yl)-4-nitroisoindoline-1,3-dione [Example 31]”: the “Inhibition Degree (%)” value with TNFα released by PBMCs stood at 62%.
Same read-out and setting: under “4-fluoro-2-(1-(2-methoxyethyl)-2,6-dioxopiperidin-3-yl)-4-nitroisoindoline-1,3-dione [Example 30]” stands 58%.
Regarding `O=C1CCC(N2C(=O)c3ccccc3C2=O)C(=O)N1CCO` (stereo not drawn) [Example 1, 2-(1-(2-Hydroxyethyl)-2,6-dioxopiperidin-3-yl)isoindoline-1,3-dione], the inhibition at 3 µM in the data set with TNFα released by PBMCs (setting [1]) stood at 70%.
`CCN(CC)CC(=O)OCCN1C(=O)CCC(N2C(=O)c3ccccc3C2=O)C1=O` (stereo not drawn) [Example 9, 2-(1-(2-hydroxyethyl)-2,6-dioxopiperidin-3-yl)isoindolin-1,3-dione 2-(diethylamino)acetate]: in the data set with TNFα released by PBMCs, the “Inhibition Degree (%)” value was 20%.
In the case of `O=C1CCC(N2C(=O)c3ccccc3C2=O)C(=O)N1CCCCO` (stereo not drawn) [Example 22, 2-(1-(4-hydroxybutyl)-2,6-dioxopiperidin-3-yl)isoindoline-1,3-dione], the inhibition at 3 µM in the data set with TNFα released by PBMCs (setting [1]) was 18%.
Still for that read-out and setting: in the case of `O=C1CCC(N2C(=O)c3cccc([N+](=O)[O-])c3C2=O)C(=O)N1CCO` (stereo not drawn) [Example 24, 2-(1-(2-hydroxyethyl)-2,6-dioxopiperidin-3-yl)-4-nitroisoindoline-1,3-dione] it was 28%.
`Nc1cccc2c1C(=O)N(C1CCC(=O)N(CCO)C1=O)C2=O` (stereo not drawn) [Example 26, 4-amino-2-(1-(2-hydroxyethyl)-2,6-dioxopiperidin-3-yl)isoindoline-1,3-dione]: the EC50 in the data set on TNFα released by PBMCs (Homo sapiens, PBMC) was found to be 250 nM. In addition, the inhibition at 3 µM in the data set on TNFα released by PBMCs (setting [1]) came to 95%.
On the same counts, the results for `COCCN1C(=O)CCC(N2C(=O)c3cccc(N)c3C2=O)C1=O` (stereo not drawn) [Example 27, 4-amino-2-(1-(2-methoxyethyl)-2,6-dioxopiperidin-3-yl)isoindoline-1,3-dione] are 300 nM and 92%.
As to `COCCN1C(=O)CCC(N2C(=O)c3cccc(NC(C)=O)c3C2=O)C1=O` (stereo not drawn) [Example 28, N-(2-(1-(2-methoxyethyl)-2,6-dioxopiperidin-3-yl)-1,3-dioxoisoindolin-7-yl)acetamide], the inhibition at 3 µM in the data set with TNFα released by PBMCs (setting [1]) amounted to 78%.
On to `COCCN1C(=O)CCC(N2C(=O)c3cccc(N(C)C)c3C2=O)C1=O` (stereo not drawn) [Example 29, 4-(dimethylamino)-2-(1-(2-methoxyethyl)-2,6-dioxopiperidin-3-yl)isoindoline-1,3-dione], for which the inhibition at 3 µM in the data set with TNFα released by PBMCs (setting [1]) was 64%.
With `O=C1CCC(N2C(=O)c3ccccc3C2=O)C(=O)N1` (stereo not drawn) [Thalidomide, reference compound], the inhibition at 100 µM in the data set with TNFα released by PBMCs (setting [1]) came out at 22%.
